Measurements: paper PMC8703873, “Structure and Activity of a Selective Antibiofilm Peptide SK-24 Derived from the NMR Structure of Human Cathelicidin LL-37” (Pharmaceuticals, 2021)
No end group written: not given here.

Key:
[1] = tested on: Human red blood cells; assay: Hemolytic assay; type: cell-based; conditions: red cells of human, 1 h
Method: Human red blood cells (hRBCs, the UNMC Blood Bank) were washed three to five times with saline (Fisher Scientific, Waltham, MA, USA) at 800 g for 10 min each time, until the supernatant was clear. The supernatant was discarded, and hRBCs were suspended in saline at a final density of 2%. Ninety microliters of hRBC suspensions were added to each well of 96-well plates containing 10 µL of 10× serially diluted peptides. After incubation at 37 °C for 1 h, the plates were centrifuged at 1500 rpm for 5 min. About 80 µL of the supernatant was carefully pipetted to a new 96-well microplate and read at 545 nm to measure the amount of hemoglobin released. The positive control was 1% Triton X-100, and the negative control was saline. The percentage of hRBC lysis was calculated based on the hemoglobin released.

[2] = tested on: P. aeruginosa E411-17; type: cell-based, Pseudomonas aeruginosa; conditions: for MIC: E411-17
Method: (§1) The antibiotic-resistant pathogens used in this study include the Gram-positive bacteria Enterococcus faecium V286-17 and Staphylococcus aureus USA300 LAC and the Gram-negative bacteria Klebsiella pneumoniae E406-17, Acinetobacter baumannii B28-16, Pseudomonas aeruginosa E411-17, and Escherichia coli E423-17. All bacteria were cultivated in tryptic soy broth (TSB) at 37 °C, 220 rpm.
(§2) The antibacterial activity of peptides was evaluated using a standard broth microdilution protocol with minor modifications. In brief, peptides were made at various concentrations, 10 μL per well in a 96-well polystyrene microplate. Logarithmic phase bacterial cultures (i.e., optical density (OD) at 600 nm ≈ 0.5) were diluted to 0.001 OD, and aliquots of 90 μL were added to each well. Untreated bacterial culture and medium were included as positive and negative controls, respectively. Plates were incubated at 37 °C overnight and read at 630 nm using a ChroMate Microplate Reader (Awareness Technology, Palm City, FL, USA). […] Our previously designed peptide 17BIPHE2 [32] was included as a positive control, and RI-10, a peptide without antibacterial activity in rich media, was utilized as a negative control.

[3] = tested on: S. aureus USA300 LAC preformed biofilms; assay: Disruption of preformed biofilms (XTT); type: cell-based, Staphylococcus aureus; conditions: for Antibiofilm effect on 24 h preformed biofilms: 24 h preformed biofilms of S. aureus USA300, XTT
Method: (§3) The antibiofilm activities of peptides against the preformed biofilms of A. baumannii B28-16 and S. aureus USA300 LAC were evaluated as follows. Bacteria in the logarithmic growth phase were adjusted to a cell density of 10^5 colony forming unit (CFU)/mL. Two hundred microliter cells were seeded into each well of the 96-well plates. The plates were incubated at 37 °C to allow for the formation of biofilm for 24, 48, and 72 h, respectively. The planktonic cells were then removed, followed by a wash. The biofilms were then treated with 20 µL of 10× two-fold diluted peptides and 180 µL of fresh TSB media for 24 h at 37 °C. Cultures treated with water without peptide served as the positive control, and media treated with water was used as the negative control. To quantify the antibiofilm activity of the peptides, the XTT [2, 3-bis (2-methyloxy-4-nitro-5-sulfophenyl)-2H-tertazolium-5-carboxanilide] assay staining method was used to quantitate the live cells. Absorbance was read at 450 nm using a ChroMate microliter plate reader. The percentage biofilm growth for the peptide was plotted by assuming 100% biofilm growth in untreated bacterial control wells. Data were represented as mean ± standard deviation (SD). The data are statistically significant at p < 0.05. Plots were generated using GraphPad Prism v7 (GraphPad Software, San Diego, CA, USA).

[4] = tested on: E. coli E423-17; type: cell-based, Escherichia coli
Method: as §1, §2

[5] = tested on: S. aureus USA300; type: cell-based, Staphylococcus aureus
Method: as §1, §2

[6] = HPLC retention time (measure of peptide hydrophobicity); type: physicochemical; conditions: chromatographic, Waters C8 symmetry hydrophobic column, as described in ref 34; used as indicator of peptide hydrophobicity
Excerpt: In the membrane-bound LL-37 structure determined by 3D NMR spectroscopy, a hydrophobic gap exists (Figure 1A). The location of a hydrophilic S9 on the hydrophobic surface of LL-37 splits the long helix into two hydrophobic domains (gold sticks). The SK-24 peptide we identified here corresponds to the long hydrophobic domain [26]. The amino acid sequence of SK-24, along with LL-37 and its derived antimicrobial peptides, is depicted in Figure 1B. Peptide parameters, including net charge, hydrophobic content, Boman index, GRAVY, hydrophobicity, and hydrophobic moment of each peptide, were calculated using online tools, such as the APD [8] and HeliQuest (Table 1). Except for the shortest RI-10 (net charge +3), LL-37 and its other derived peptides have net charges +5 or +6, above the average net charge (+3.3) of natural antimicrobial peptides registered in the APD [8, 35, 36]. Overall, the hydrophobic percentages (Pho) of these peptides calculated in the APD are proportional to the hydrophobicity and hydrophobic moment calculated by HeliQuest in Table 1. Of note, LL-37 has the highest net charge (+6) and Boman index but the lowest Pho%, GRAVY, and hydrophobic moment.
All peptides were chemically synthesized and purified to >95% (Genemed Synthesis, San Antonio, TX, USA). The quality of each peptide was determined based on mass spectrometry (MS) and high-performance liquid chromatography (HPLC). Peptide stock solutions were freshly made by solubilizing in autoclaved distilled water, and their concentrations were quantitated using UV spectroscopy based on the absorbance difference at 215 and 225 nm as described. Peptide retention time was measured on a Waters C8 symmetry hydrophobic column as described. Other chemicals were purchased from Sigma (St. Louis, MO, USA) unless specified.

[7] = tested on: E. faecium V284-17; type: cell-based, Enterococcus faecium; conditions: V284-17
[8] = tested on: S. aureus USA300 LAC; assay: Membrane depolarization (DiBAC4(3)); type: cell-based, Staphylococcus aureus; conditions: DiBAC4(3) fluorescence; for Membrane depolarization ability (order, words): peptide 8 µM, similar trends at 16 and 32 µM
Method: The experiment was conducted as described. In brief, an overnight culture of S. aureus USA300 LAC was subcultured in a fresh TSB medium and grown to the exponential phase. Cells were spun using centrifugation and washed twice with PBS, and resuspended in twice the volume of PBS containing 25 mM glucose and incubated at 37 °C for 15 min. For membrane depolarization measurements, 500 nM (final concentration) of the dye DiBAC4 (3) (bis-(1,3- dibutylbarbituric acid) trimethine oxonol) (AnaSpec, San Jose, CA, USA) was added and vortexed gently. Aliquots of 90 μL of the energized bacteria solution were loaded to the wells, and the plate was fed into a FLUOstar Omega microplate reader. Fluorescence was read for 20 min at excitation and emission wavelengths of 485 and 520 nm, respectively, to get dye normalization. Then 10 μL of diluted peptide solutions were added and gently mixed. Fluorescence readings were recorded for 40 min, where Triton X-100 (0.1%) was used as a positive control.

[9] = tested on: A. baumannii B28-16 preformed biofilms; assay: Disruption of preformed biofilms (XTT); type: cell-based, Acinetobacter baumannii; conditions: for Biofilm disruption: 72 h preformed biofilms, peptide 64 μM, highest concentration tested; for Disruption of 48 h biofilms: biofilms established for 48 h; for Disruption of 48 h biofilms / Reduction of 24 h biofilms: 24 h treatment; for Reduction of 24 h biofilms: biofilms established in 24 h
Method: as §3

[10] = tested on: K. pneumoniae E406-17; type: cell-based, Klebsiella pneumoniae; conditions: for MIC: E406-17
Method: as §1, §2

[11] = tested on: A. baumannii B28-16; type: cell-based, Acinetobacter baumannii
Method: as §1, §2

[12] = tested on: S. aureus USA300 LAC preformed biofilms; conditions: S. aureus USA300 LAC and other clinical strains (USA200, USA400, Mu50); cited from earlier work
Method: Here, we compared the antibiofilm activity of SK-24 with that of GF-17, GI-20, and 17BIPHE2 against the 24 h preformed biofilms of S. aureus USA300. […] Only SK-24 a ...

[13] = tested on: A. baumannii B28-16; assay: Membrane permeabilization (propidium iodide); type: cell-based, Acinetobacter baumannii; conditions: peptide 16 µM; propidium iodide fluorescence, 2 h, PBS, 37 °C
Method: (§4) Membrane permeabilization was evaluated as described. In brief, bacteria were inoculated and grown overnight. A second inoculation was made and let bacteria grow to the exponential phase. Bacteria were then spun, washed, and resuspended in the same volume of PBS. A series of peptide solutions (10×) was made via two-fold dilution in a 96-well plate (10 µL each). All wells were aliquoted with 2 µL of propidium iodide (20 µM), followed by adding 88 µL of S. aureus USA300 or A. baumannii B28-16 (OD600 ~0.11 in PBS). The plate was incubated at 37 °C with continuous shaking at 100 rpm in a FLUOstar Omega microplate reader (BMG Labtech Inc., Cary, NC, USA). Fluorescence was recorded every 5 min for 2 h with excitation and emission wavelengths of 485 and 620 nm. The data were analyzed by the vendor’s software using averaged values from duplicated experiments.

[14] = tested on: S. aureus USA300 LAC; assay: Membrane permeabilization (propidium iodide); type: cell-based, Staphylococcus aureus; conditions: peptide 8 µM; propidium iodide fluorescence, 2 h, PBS, 37 °C
Method: as §4

[15] = tested on: clinical and antibiotic-resistant pathogens (panel of Table 3); type: cell-based; conditions: all pathogens of Table 3; peptide 32 µM
Method: as §1, §2

GFKRIVQRIKDFLRNLV-NH2 (C-terminus assumed) [GF-17]
HC50 (50% hemolytic concentration) [1]: ~ 175 µM | MIC [2]: 16 µM | Antibiofilm effect on 24 h preformed biofilms [3]: antibiofilm effect in a dose-dependent manner | MIC [4]: 16 µM | MIC [5]: 2 to 4 µM | tHPLC (HPLC retention time) [6]: 12.197 min | MIC [7]: 2 µM | Membrane depolarization ability (order, words) [8]: GI-20 > 17BIPHE2 > GF-17~SK-24 > LL-37 | Biofilm disruption [9]: 30–50% | Disruption of 48 h biofilms [9]: dose-dependent biofilm disruption | Reduction of 24 h biofilms [9]: dose-dependent manner | MIC [10]: >32 µM | MIC [11]: 4 µM | Disruption of 24 h preformed biofilms (words, found previously) [12]: highly effective

GIKEFKRIVQRIKDFLRNLV-NH2 [GI-20]
HC50 (50% hemolytic concentration) [1]: ~ 160 µM | MIC [2]: >32 µM | Antibiofilm effect on 24 h preformed biofilms [3]: antibiofilm effect in a dose-dependent manner | MIC [4]: 32 µM | MIC [5]: 2 to 4 µM | tHPLC (HPLC retention time) [6]: 12.681 min | MIC [7]: 2 µM | Membrane permeation [13]: superior to SK-24 | Membrane permeation [14]: more powerful | Membrane depolarization ability (order, words) [8]: GI-20 > 17BIPHE2 > GF-17~SK-24 > LL-37 | Biofilm disruption [9]: 30–50% | Disruption of 48 h biofilms [9]: only worked at 64 μM | Reduction of 24 h biofilms [9]: dose-dependent manner | MIC [10]: >32 µM | MIC [11]: 8 µM

RIVQRIKDFL-NH2 [RI-10]
MIC [2]: >32 µM | MIC [4]: >32 µM | MIC [5]: >32 µM | Inhibitory activity at 32 µM [15]: did not show any inhibitory activity | tHPLC (HPLC retention time) [6]: 8.831 min | MIC [7]: >32 µM | Membrane permeation [13]: some membrane permeation | Membrane permeation [14]: some membrane permeation | Membrane depolarization ability (order, words) [8]: unable to produce a similar effect | Disruption of preformed biofilms ([9]; biofilms formed for 24, 48 and 72 h, peptide at 8, 16, 32 or 64 μM for 24 h): unable to disrupt | MIC [10]: >32 µM | MIC [11]: >32 µM | Disruption of 24 h preformed biofilms (words, found previously) [12]: neither LL-37 nor RI-10 was able to disrupt

SKEKIGKEFKRIVQRIKDFLRNLV-NH2 [SK-24]
HC50 (50% hemolytic concentration) [1]: greater than 200 µM | MIC [2]: >32 µM | Effect on growth at 32 μM ([2]; P. aeruginosa E411-17, peptide 32 μM): poor effect | Antibiofilm effect on 24 h preformed biofilms [3]: antibiofilm effect in a dose-dependent manner | Staphylococcal biofilm remaining (reduced to) ([3]; 24 h preformed biofilms, peptide 32 μM, relative to untreated control = 100%): ~ 25% | MIC [4]: 16 µM | tHPLC (HPLC retention time) [6]: 12.291 min | Membrane permeation [14]: weakly permeated | Membrane depolarization ability (order, words) [8]: GI-20 > 17BIPHE2 > GF-17~SK-24 > LL-37 | Membrane depolarization, dose dependence ([8]; peptide 4, 8, 16 and 32 µM): dose-dependent manner | Biofilm disruption [9]: ~ 70% | Disruption of 48 h biofilms [9]: dose-dependent biofilm disruption | Reduction of 24 h biofilms [9]: dose-dependent manner | MIC [10]: ≥32 µM | Effect on growth at 32 μM ([10]; K. pneumoniae E406-17, peptide 32 μM): poor effect
